{"source": "patent US6417384B1", "about": "“Radioiodinated phospholipid ether analogs and methods of using the same” (The Regents of the University of Michigan, priority 1999, dated 2002)", "format_in_all_cases": "in vivo, rat", "key": {"[1]": {"system": "Dunning R3327 prostate tumor-bearing animals", "assay": "Gamma camera scintigraphy studies with Dunning R3327 prostate tumor", "conditions": ">40 μCi injected, 125I window, static fifteen-minute images", "experimental": "Comparative in vivo scintigaphic studies were also conducted using the C-12 analog 12-(p-iodophenyl)dodecyl phosphocholine and the C-18 analogs 18-(p-iodophenyl)octadecyl phosphocholine (Compound XVI) and 1-O-[18-(p-iodophenyl)octadecyl]-1,3-propanediol-3-phosphocholine (Compound XIV) utilized in Example 7. The imaging studies were performed on Dunning R3327 prostate tumor-bearing animals injected with >40 μCi of the radioiodinated phospholipid ether formulations described above. The anesthetized animals were imaged at selected times after injection on a gamma camera set to the ^125I window and outfitted with a low energy collimator. Static fifteen-minute images were obtained for each animal at the specified time. The results are illustrated in FIGS. 8A-8C."}, "[2]": {"system": "rats bearing Dunning (MATLyLu) prostate tumors", "assay": "Biodistribution studies with Dunning prostate tumor", "conditions": "i.v., Dunning MAT-LyLu prostate tumor-bearing rats, mean ± SEM", "experimental": "The three radiolabelled compounds illustrated in FIGS. 7A-7C, including the improved C-18 analogs 18-(p-iodophenyl)octadecyl phosphocholine (Compound XVI—FIG. 7B) and 1-O-[18-(p-iodophenyl)octadecyl]-1,3-propanediol-3-phosphocholine (Compound XIV—FIG. 7C) described in Examples 2 and 3, respectively, were prepared and administered to two sets of male Copenhagen rats (Harlan Sprague-Dawley, Indianapolis, Ind.). One group of normal animals was used as a control, and another group was inoculated with Dunning prostate tumor cells (1×10^6 MAT-LyLu cells) in 0.2 ml saline in the right hindlimb. The MAT-LyLu subline of the Dunning (R-3327) adenocarcinoma prostate tumor was provided by Dr. Ken Pienta of the Department of Urology at the University of Michigan, and is an accepted cell line representative of effect in humans. See, e.g., Pienta et al., “Inhibition of Spontaneous Metastasis in a Rat Prostrate Cancer Model by Oral Administration of Modified Citrus Pectin, J. Natl. Cancer Inst. 87:348-53 (1995).\nThe animals were maintained with free access to food and water until day 8-10. The radioiodinated phospholipid ether analog formulated in 2% Tween 20—sterile water (5-10 μCi, 0.3-0.4 ml, described above in Example 6) was administered intravenously into the tail vein of the tumor-bearing animals under metofane anesthesia. The animals were euthanized at selected time points after injection (n=3 per time point) and samples of blood, plasma and a variety of tissues including tumor and prostate are collected and analyzed for radioiodine content. Biodistribution values are calculated as the mean of the individual % administered dose per gram of tissue and % dose per organ values."}, "[3]": {"system": "rats bearing Walker-256 tumor", "assay": "Biodistribution studies with Walker-256 carcinosarcoma", "conditions": "i.v., Walker-256 tumor-bearing rats, mean ± SEM", "experimental": "The three radiolabelled compounds illustrated in FIG. 5, including the improved C-18 analog 18-(p-iodophenyl)octadecyl phosphocholine (Compound XVI) described in Example 2, were prepared and administered to two sets of female Sprague Dawley rats (Charles River, Portage, Mich.). One normal set was used as a control, and one set was inoculated with Walker-256 carcinosarcoma cells (5×10^6 cells) in 0.2 ml saline in the right hindlimb. The Walker carcinoma cell line was provided by Dr. James Varani of the Department of Pathology at the University of Michigan, and is an accepted cell line representative of effect in humans. See, e.g. Tayck et al., “Influence of the Walker 256 Carcinosarcoma on Muscle, Tumor, and Whole-Body Protein Synthesis and Growth Rate in the Cancer-Bearing Rat, Cancer Res. 46:5649-54 (1986).\nThe animals were used 6-8 days later when the tumor weight averaged 10 g. The radiolabelled compounds were dissolved in absolute ethanol (50-500 μl) and Tween-20 (0.1 ml/mg of compound) was added to the solution. Ethanol was removed by evaporation under a stream of nitrogen. Physiological saline or sterile water was added, to give a 2-3% Tween-20 solution which was subsequently mixed by vortex. The solubilized radiolabelled compounds (5-10 μCi, 0.3 ml) were administered intravenously via the tail vein to tumor bearing rats, and the animals were sacrificed by exsanguination while under ether anesthesia at the various time points. Blood samples were collected through cardiac puncture and selected tissues (liver, kidney, etc.) were removed, trimmed, blotted to remove excess blood and weighed. Large organs were thoroughly minced with scissors to obtain random representative tissue samples.\nFor the biodistribution experiments with 12-(p-iodophenyl)dodecyl phosphocholine, weighed tissue samples were counted with a well scintillation counter (85% counting efficiency). The concentration of radioactivity in each tissue was expressed as a percentage of administered dose per gram of tissue.\nTissue distribution was assessed at various times following administration of the radioiodinated chain length isomers. The results are expressed as the mean % administered dose per gram±SEM (% Dose/g±SEM)."}}}
{"substance": "12-(p-iodophenyl)dodecyl phosphocholine [C-12 Analog]", "values": [{"measurement": "tumor localization in gamma camera scintigraphy images", "setting": "[1]", "value": "tumor was barely visible"}, {"measurement": "mean % administered dose per gram, Adrenal", "setting": "[2]; 24 hr", "value": "0.29 ± 0.01", "unit": "% Dose/g"}, {"measurement": "mean % administered dose per gram, Adrenal", "setting": "[2]; 48 hr", "value": "0.23 ± 0.01", "unit": "% Dose/g"}, {"measurement": "mean % administered dose per gram, Blood", "setting": "[2]; 24 hr", "value": "0.23 ± 0.02", "unit": "% Dose/g"}, {"measurement": "mean % administered dose per gram, Blood", "setting": "[2]; 48 hr", "value": "0.22 ± 0.01", "unit": "% Dose/g"}, {"measurement": "mean % administered dose per gram, Kidney", "setting": "[2]; 24 hr", "value": "4.45 ± 0.27", "unit": "% Dose/g"}, {"measurement": "mean % administered dose per gram, Kidney", "setting": "[2]; 48 hr", "value": "3.38 ± 0.43", "unit": "% Dose/g"}, {"measurement": "mean % administered dose per gram, Liver", "setting": "[2]; 24 hr", "value": "1.27 ± 0.02", "unit": "% Dose/g"}, {"measurement": "mean % administered dose per gram, Liver", "setting": "[2]; 48 hr", "value": "1.05 ± 0.03", "unit": "% Dose/g"}, {"measurement": "mean % administered dose per gram, Lung", "setting": "[2]; 24 hr", "value": "0.48 ± 0.03", "unit": "% Dose/g"}, {"measurement": "mean % administered dose per gram, Lung", "setting": "[2]; 48 hr", "value": "0.33 ± 0.02", "unit": "% Dose/g"}, {"measurement": "mean % administered dose per gram, Plasma", "setting": "[2]; 24 hr", "value": "0.32 ± 0.03", "unit": "% Dose/g"}, {"measurement": "mean % administered dose per gram, Plasma", "setting": "[2]; 48 hr", "value": "0.32 ± 0.01", "unit": "% Dose/g"}, {"measurement": "mean % administered dose per gram, Tumor", "setting": "[2]; 24 hr", "value": "0.37 ± 0.03", "unit": "% Dose/g"}, {"measurement": "mean % administered dose per gram, Tumor", "setting": "[2]; 48 hr", "value": "0.30 ± 0.01", "unit": "% Dose/g"}, {"measurement": "mean % administered dose per gram, Adrenal", "setting": "[3]; 24 hr", "value": "0.33 ± 0.01", "unit": "% Dose/g"}, {"measurement": "mean % administered dose per gram, Adrenal", "setting": "[3]; 48 hr", "value": "0.29 ± 0.01", "unit": "% Dose/g"}, {"measurement": "mean % administered dose per gram, Blood", "setting": "[3]; Blood, 24 hr", "value": "0.27 ± 0.04", "unit": "% Dose/g"}, {"measurement": "mean % administered dose per gram, Blood", "setting": "[3]; Blood, 48 hr", "value": "0.27 ± 0.03", "unit": "% Dose/g"}, {"measurement": "blood levels", "setting": "[3]; Blood, 120 hours", "value": "0.22±0.03", "unit": "% Dose/g"}, {"measurement": "mean % administered dose per gram, Duodenum", "setting": "[3]; 24 hr", "value": "1.35 ± 0.13", "unit": "% Dose/g"}, {"measurement": "mean % administered dose per gram, Duodenum", "setting": "[3]; 48 hr", "value": "0.77 ± 0.06", "unit": "% Dose/g"}, {"measurement": "mean % administered dose per gram, Kidney", "setting": "[3]; 24 hr", "value": "4.10 ± 0.44", "unit": "% Dose/g"}, {"measurement": "mean % administered dose per gram, Kidney", "setting": "[3]; 48 hr", "value": "3.44 ± 0.08", "unit": "% Dose/g"}, {"measurement": "mean % administered dose per gram, Liver", "setting": "[3]; 24 hr", "value": "1.62 ± 0.17", "unit": "% Dose/g"}, {"measurement": "mean % administered dose per gram, Liver", "setting": "[3]; 48 hr", "value": "1.37 ± 0.01", "unit": "% Dose/g"}, {"measurement": "mean % administered dose per gram, Lung", "setting": "[3]; 24 hr", "value": "1.06 ± 0.04", "unit": "% Dose/g"}, {"measurement": "mean % administered dose per gram, Lung", "setting": "[3]; 48 hr", "value": "0.53 ± 0.01", "unit": "% Dose/g"}, {"measurement": "mean % administered dose per gram, Plasma", "setting": "[3]; 24 hr", "value": "0.39 ± 0.05", "unit": "% Dose/g"}, {"measurement": "mean % administered dose per gram, Plasma", "setting": "[3]; 48 hr", "value": "0.39 ± 0.05", "unit": "% Dose/g"}, {"measurement": "mean % administered dose per gram, Tumor", "setting": "[3]; 24 hr", "value": "2.99 ± 0.34", "unit": "% Dose/g"}, {"measurement": "mean % administered dose per gram, Tumor", "setting": "[3]; 48 hr", "value": "1.84 ± 0.09", "unit": "% Dose/g"}]}
